# Results published in patent US20250084079A1, “COMPOSITIONS AND METHODS FOR INHIBITION OF RAS” (TheRas, Inc., priority 2022, published 2025).
# Where two headings read alike, the source gives them in different places.
# How the values were obtained:
# [1] = target: T1, Avi-KRAS G12D/Q25A (1-169) GppNHp/3xFLAG-PI3KCA (157-299) (Homo sapiens, UniProt P01116, G12D/Q25A); assay: RAS-effector PPI HTRF disruption assay, PI3KCA-GppNHp-KRAS G12D/Q25A; format: biochemical
# T1 construct: 375 nM Avi-KRAS G12D/Q25A (1-169) GppNHp
# Experimental: (§1) A protein:protein interaction (PPI) Homogeneous Time Resolved Fluorescence (HTRF) assay was used to determine the effectiveness of compounds of the present disclosure in disrupting KRAS protein and effector (RAF1 or PIK3 CA) binding.
# (§2) The HTRF assay used the following reagents and proteins: (i) 375 nM Avi-KRAS G12D/Q25A (1-169) GppNHp/3×FLAG-PI3KCA (157-299); (ii) 100 nM Avi-KRAS G12D (1-169) GppNHp/RAF1 RBD-3×FLAG (52-151); (iii) 50 nM Avi-KRAS G12V (1-169) GppNHp/RAF1 RBD-3×FLAG (52-151); (iv) 50 nM Avi-KRAS WT (1-169) GppNHp/RAF1 RBD-3×FLAG (52-151); and (v) 35 nM Avi-PI3K RBD CA-3×FLAG; Assay Buffer: 50 mM Tris pH 7.5, 100 mM NaCl, 5 mM MgCl2, 0.1% BSA, 0.01% Tween, 1 mM TCEP, 10% DMSO; Bead Buffer: 50 mM Tris pH 7.5, 0.01% Tween 20; Assay volume: 20 μL (384 well plate-low volume format); and Compound titration: 100-0.02 μM, 3× dilution series.
# (§3) The HTRF assay employed the following protocol:
# (§4) Compounds were dispensed in assay plate (384-well, Grenier Bione #784075) using Echo (model 555) with dose response settings: 200 nL final volume, titration from 100 μM as a 10-point dilution series. Protein mix was prepared in assay buffer, and dispensed on plates, 10 μL per well, then incubated for 1 h at room temperature, with 700 rpm shaking. Reagents mix was prepared and dispensed on plates, 10 μL per well, then incubated for 1 h at room temperature, with 700 rpm shaking.
# (§5) Plates were analyzed on an Envision plate reader using the following setting: Excitation 320 nm, Bandwidth […]; Emission 615 nm, Bandwidth […], Gain 100%, Flashes 100, Lag 60 μs. Data was reported as percentage of activity, with DMSO as 100%. Data was plotted and analyzed using Prism 8. The SPR Kd, biochemical Raf1-KRAS G12D/G12V/WT-GppNHP and PI3KCA-KRAS G12D/Q25A-GppNHp disruption assay IC50 of selected compounds described herein are shown in Table 4.
# [2] = target: T2, Avi-KRAS WT (1-169) GppNHp/RAF1 RBD-3xFLAG (52-151) (Homo sapiens, UniProt P01116); assay: RAS-effector PPI HTRF disruption assay, Raf1-GppNHp-KRAS WT; format: biochemical
# T2 construct: 50 nM Avi-KRAS WT (1-169) GppNHp
# Experimental: as §1, §2, §3, §4, §5
# [3] = target: T3, Avi-KRAS G12D (1-169) GppNHp/RAF1 RBD-3xFLAG (52-151) (Homo sapiens, UniProt P01116, G12D); assay: RAS-effector PPI HTRF disruption assay, Raf1-GppNHp-KRAS G12D; format: biochemical
# T3 construct: 100 nM Avi-KRAS G12D (1-169) GppNHp
# Experimental: as §1, §2, §3, §4, §5
# [4] = system: pERK in GP2d cells (KRAS G12D); assay: Cell-based pERK HTRF assay in GP2d cell; settings: 60 min incubation
# Experimental: A pERK assay (Perkin Elmer) was used to determine the effectiveness of compounds in disrupting KRAS G12D protein/effector signaling in cells.
# On Day 1, cells (GP2d) were seeded into 96-well plates at 3×10^4 cells/well in 80 μL complete growth media (DMEM, 10% FBS).
# On Day 2, cells were treated with compounds at 0.25% DMSO. The source plate was created with compounds diluted in media at 5-fold the final assay concentration. The compounds were run in a 9-point concentration curve starting at 1 μM, with a half-log dilution between concentrations. 20 μL was transferred onto the cell plates (final volume in wells was 100 μL). Plates were harvested after 60 min incubation by aspirating media and adding kit-supplied 1× supplemented lysis buffer to all wells (50 μL per well). Plates were then placed on a plate shaker and incubated at 850 rpm for an additional 30 min.
# Antibody mixture solution is prepared by diluting aliquoted d2 and Eu Cryptate antibodies 1:20 in kit supplied detection buffer, mix the diluted antibodies solutions (1:1 v:v). 4 μL of this solution is then added to a 384-well detection plate (Perkin Elmer; 6008230).
# Samples were homogenized by pipetting up and down and then transferred (16 μL of cell lysates) from the 96-well cell culture plate to two wells of the HTRF 384-well detection plate containing the antibody solution. Plates were centrifuged (524 g for 1 min) and allowed to incubate between 4 and 24 h at room temperature. Maximum signal is reached after 4 h incubation time and remains stable over a period of 24 hours. Therefore, readings can be made between 4 and 24 h of incubation. Plates were centrifuged again (524 g for Imin), then analyzed on the EnVision plate reader using the following settings: Excitation 320 nm, Bandwidth 75 nm; Emission 615 nm, Bandwidth 85 nm; Gain 100%; Flashes 100; Lag 60 μs.
# [5] = target: T4, Avi-KRAS G12V (1-169) GppNHp/RAF1 RBD-3xFLAG (52-151) (Homo sapiens, UniProt P01116, G12V); assay: RAS-effector PPI HTRF disruption assay, Raf1-GppNHp-KRAS G12V; format: biochemical
# T4 construct: 50 nM Avi-KRAS G12V (1-169) GppNHp
# Experimental: as §1, §2, §3, §4, §5
# T1 sequence (P01116 1-169 isoform P01116-2 G12D/Q25A): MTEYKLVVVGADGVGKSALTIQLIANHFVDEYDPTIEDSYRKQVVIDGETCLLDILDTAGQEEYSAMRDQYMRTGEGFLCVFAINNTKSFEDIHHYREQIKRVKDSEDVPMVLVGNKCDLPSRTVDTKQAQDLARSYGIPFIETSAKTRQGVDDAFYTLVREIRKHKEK
# T2 sequence (P01116 1-169 isoform P01116-2): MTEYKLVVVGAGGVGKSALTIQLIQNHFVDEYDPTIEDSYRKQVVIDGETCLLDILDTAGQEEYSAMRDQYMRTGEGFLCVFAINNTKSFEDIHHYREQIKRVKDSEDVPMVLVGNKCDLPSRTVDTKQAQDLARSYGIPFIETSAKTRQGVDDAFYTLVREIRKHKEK
# T4 sequence (P01116 1-169 isoform P01116-2 G12V): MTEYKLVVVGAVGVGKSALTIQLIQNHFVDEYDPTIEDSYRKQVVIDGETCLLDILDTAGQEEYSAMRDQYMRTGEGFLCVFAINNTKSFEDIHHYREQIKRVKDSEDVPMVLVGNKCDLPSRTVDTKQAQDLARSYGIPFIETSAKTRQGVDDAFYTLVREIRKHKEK
# T3 sequence (P01116 1-169 isoform P01116-2 G12D): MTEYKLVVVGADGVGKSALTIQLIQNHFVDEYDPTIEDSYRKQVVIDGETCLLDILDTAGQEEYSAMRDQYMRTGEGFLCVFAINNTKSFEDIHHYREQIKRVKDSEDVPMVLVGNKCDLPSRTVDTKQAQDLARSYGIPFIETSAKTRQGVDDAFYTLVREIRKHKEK
Structure (SMILES),IC50 [1],IC50 [2],IC50 [3],IC50 ([4]; read-out: pERK-Gp2D-1 hr),IC50 [5],"IC50 ([4]; GP2d, 1 h)"
"Nc1nc2c(-c3ncc4c(O[C@@H]5CCNC5)nc(OC[C@@]56CCCN5C[C@H](F)C6)nc4c3F)ccc(F)c2s1 [Compound 24, 7-fluoro-4-(8-fluoro-2-(((2R,7aS)-2-fluorotetrahydro-1H-pyrrolizin-7a(5H)-yl)methoxy)-4-(((R)-pyrrolidin-3-yl)oxy)pyrido[4,3-d]pyrimidin-7-yl)benzo[d]thiazol-2-amine]",> 10000 nM,> 10000 nM,> 10000 nM,,> 10000 nM,> 1000 nM
CC1(C)NCC[C@H]1Oc1nc(OC[C@@]23CCCN2C[C@H](F)C3)nc2c(F)c(-c3ccc(F)c4sc(N)nc34)c(C(F)(F)F)cc12 [Compound 27],> 10000 nM,1000 to 10000 nM,100 to 1000 nM,,1000 to 10000 nM,100 to 1000 nM
Nc1nc2c(-c3c(C(F)(F)F)cc4c(O[C@H]5CNCC5(F)F)nc(OC[C@@]56CCCN5C[C@H](F)C6)nc4c3F)ccc(F)c2s1 [Compound 28],> 10000 nM,1000 to 10000 nM,1000 to 10000 nM,100 to 1000 nM,> 10000 nM,
Nc1nc2c(-c3cc4nc(OC[C@@]56CCCN5C[C@H](F)C6)nc(O[C@H]5CNC[C@@H]5F)c4cc3C(F)(F)F)ccc(F)c2s1 [Compound 30],> 10000 nM,> 10000 nM,1000 to 10000 nM,,> 10000 nM,> 1000 nM
Nc1nc2c(-c3cc4nc(OC[C@@]56CCCN5C[C@H](F)C6)nc(O[C@H]5CNC[C@H]5F)c4cc3C(F)(F)F)ccc(F)c2s1 [Compound 31],> 10000 nM,> 10000 nM,1000 to 10000 nM,,> 10000 nM,> 1000 nM
Nc1nc2c(-c3c(C(F)(F)F)cc4c(O[C@H]5CNC[C@@H]5F)nc(OC[C@@]56CCCN5C[C@H](F)C6)nc4c3Cl)ccc(F)c2s1 [Compound 33],1000 to 10000 nM,1000 to 10000 nM,1000 to 10000 nM,,> 10000 nM,100 to 1000 nM
Nc1nc2c(-c3c(C(F)(F)F)cc4c(OC5CC6CC[C@H]5N6)nc(OCC56CCCN5CCC6)nc4c3F)ccc(F)c2s1 (stereo partly drawn) [Compound 36],> 10000 nM,1000 to 10000 nM,100 to 1000 nM,,> 10000 nM,> 1000 nM
"C[C@H]1NCC[C@H]1Oc1nc(OC[C@@]23CCCN2C[C@H](F)C3)nc2c(F)c(-c3ccc(F)c4sc(N)c(C#N)c34)c(C(F)(F)F)cc12 [Compound 47, 2-amino-7-fluoro-4-(8-fluoro-2-(((2R,7aS)-2-fluorotetrahydro-1H-pyrrolizin-7a(5H)-yl)methoxy)-4-(((2R,3R)-2-methylpyrrolidin-3-yl)oxy)-6-(trifluoromethyl)quinazolin-7-yl)benzo[b]thiophene-3-carbonitrile]",> 10000 nM,≤ 100 nM,≤ 100 nM,,100 to 1000 nM,≤ 100 nM
N#Cc1c(N)sc2c(F)ccc(-c3ccc4c(O[C@@H]5CCNC5)nc(OC[C@@]56CCCN5C[C@H](F)C6)nc4c3F)c12 [Compound 48],100 to 1000 nM,1000 to 10000 nM,100 to 1000 nM,,> 10000 nM,100 to 1000 nM
N#Cc1c(N)sc2c(F)ccc(-c3cc4nc(OC[C@@]56CCCN5C[C@H](F)C6)nc(O[C@H]5CNC[C@H]5F)c4cc3C(F)(F)F)c12 [Compound 49],100 to 1000 nM,1000 to 10000 nM,100 to 1000 nM,,1000 to 10000 nM,≤ 100 nM
Nc1nc2c(-c3c(C(F)(F)F)cc4c(O[C@H]5CN[C@H](CO)C5)nc(OCC56CCCN5C[C@H](F)C6)nc4c3F)ccc(F)c2s1 (stereo partly drawn) [Compound 52],1000 to 10000 nM,1000 to 10000 nM,100 to 1000 nM,,> 10000 nM,100 to 1000 nM
N#Cc1c(N)sc2c(F)ccc(-c3c(C(F)(F)F)cc4c(O[C@H]5CNC[C@@H]5F)nc(OC[C@@]56CCCN5C[C@H](F)C6)nc4c3F)c12 [Compound 53],100 to 1000 nM,100 to 1000 nM,100 to 1000 nM,,1000 to 10000 nM,≤ 100 nM

# Results, then the compound that gave them:
IC50 [1],IC50 [2],IC50 [3],IC50 ([4]; read-out: pERK-Gp2D-1 hr),IC50 [5],"IC50 ([4]; GP2d, 1 h)",Structure (SMILES)
1000 to 10000 nM,1000 to 10000 nM,1000 to 10000 nM,100 to 1000 nM,1000 to 10000 nM,,C[C@@H]1CNCC1Oc1nc(OC[C@@]23CCCN2C[C@H](F)C3)nc2c(F)c(-c3ccc(F)c4sc(N)nc34)c(C(F)(F)F)cc12 (stereo partly drawn) [Compound 16]
> 10000 nM,> 10000 nM,> 10000 nM,,> 10000 nM,> 1000 nM,C[C@H]1NCC[C@H]1Oc1nc(OC[C@@]23CCCN2C[C@H](F)C3)nc2c(F)c(-c3ccc(F)c4scnc34)c(C(F)(F)F)cc12 [Compound 23]
100 to 1000 nM,100 to 1000 nM,100 to 1000 nM,,1000 to 10000 nM,≤ 100 nM,C[C@H]1NCC[C@H]1Oc1nc(OCC23CCCN2C[C@H](F)C3)nc2c(F)c(-c3ccc(F)c4sc(N)nc34)c(C(F)(F)F)cc12 (stereo partly drawn) [Compound 25]
> 10000 nM,> 10000 nM,> 10000 nM,,> 10000 nM,> 1000 nM,Nc1nc2c(-c3ncc4c(O[C@@H]5CCNC5)nc(OC[C@@]56CCCN5C[C@H](F)C6)nc4c3F)c(F)cc(F)c2s1 [Compound 32]
100 to 1000 nM,100 to 1000 nM,100 to 1000 nM,,100 to 1000 nM,≤ 100 nM,CC1(C)NCCC1Oc1nc(OC[C@@]23CCCN2C[C@H](F)C3)nc2c(F)c(-c3ccc(F)c4sc(N)c(C#N)c34)c(C(F)(F)F)cc12 (stereo partly drawn) [Compound 34]
> 10000 nM,1000 to 10000 nM,100 to 1000 nM,,1000 to 10000 nM,100 to 1000 nM,C[C@H]1NCC[C@H]1Oc1nc(OC[C@@]23CCCN2C[C@H](F)C3)nc2cc(-c3ccc(F)c4sc(N)nc34)c(C(F)(F)F)cc12 [Compound 35]
> 10000 nM,> 10000 nM,100 to 1000 nM,,> 10000 nM,> 1000 nM,N#Cc1c(N)sc2c(F)ccc(-c3cc4nc(OC[C@@]56CCCN5C[C@H](F)C6)nc(O[C@H]5CNC[C@@H]5F)c4cc3C(F)(F)F)c12 [Compound 46]
100 to 1000 nM,100 to 1000 nM,100 to 1000 nM,,100 to 1000 nM,≤ 100 nM,N#Cc1c(N)sc2c(F)ccc(-c3c(C(F)(F)F)cc4c(O[C@@H]5CCN[C@@H]5CO)nc(OC[C@@]56CCCN5C[C@H](F)C6)nc4c3F)c12 [Compound 50]
1000 to 10000 nM,> 10000 nM,1000 to 10000 nM,,> 10000 nM,> 1000 nM,N#Cc1c(N)sc2c(F)ccc(-c3ncc4c(O[C@H]5CNC[C@H]5F)nc(OC[C@@]56CCCN5C[C@H](F)C6)nc4c3F)c12 [Compound 51]
